Laboratory results from article PMC8169650, “Identification of Small Molecule Inhibitors of a Mir155 Transcriptional Reporter in Th17 Cells” (Scientific Reports, 2021).

Legend:
Mir155 reporter = Mir155 reporter Beta-Glo HTS assay (β-gal activity); assay type: cell-based, mouse; details: for effect on Mir155 reporter expression / EC50: Th17 cells from Mir155 reporter mice; for effect on Mir155 reporter expression: dose response; for EC50: Mus musculus, β-gal signal, 48 h, read-out: EC50, inhibition of Mir155 reporter expression
Protocol: To develop an assay for the HTS screen, CD4^+ T cells were purified from spleen and lymph nodes of the Mir155 reporter mice. The purified CD4^+ T cells were cultured under Th17 cell-polarizing conditions in twelve well plates following which differentiated Th17 cells were transferred and expanded in six well plates followed by a resting period of 2 days in T cell media (schema depicted in Fig. 1a). We first optimized the cell number to maximize the assay window. To this end, differentiated Th17 cells were plated at different cell densities in the wells of polystyrene 1536-well plates under Th17 polarizing conditions. T cell activation was accomplished using two protocols. In the first protocol, magnetic beads coupled to anti-CD3 and anti-CD28 antibodies (CD3/CD28 microbeads) were added to mediate T cell activation as induction of MiR155 expression requires engagement of the TCR CD3 complex (signal 1) plus the co-stimulatory molecule CD28 (signal 2). The cells along with the beads were incubated at 37 °C, 5% CO2 for 48 h and, subsequently, high-throughput quantitation of β-gal activity was performed after 30 min of incubation using the Beta-Glo Assay system (Fig. 1b).
The NPC collection was screened at seven concentrations (top concentration 46 µM; 1:5 dilution thereafter) and drug response curves for the compounds were generated using our qHTS curve class classification algorithm as described above.
CD4^+ cells were purified from spleens and lymph nodes of Mir155 reporter mice as described above. Briefly, single cell suspensions were prepared by mechanical disruption followed by lysis of red blood cells with 0.83% ammonium chloride. CD4^+ T cells were either isolated by FACS sorting (BD FACS Aria) or were positively selected using magnetic CD4 microbeads (Miltenyi Biotec)[43]. 1 million CD4^+ cells/well were cultured in anti-CD3/CD28 (1 µg/ml each) coated 12 well plates under Th17 polarization conditions following which differentiated Th17 cells were transferred and expanded in six well plates followed by a resting period of 2 days in T cell media. A cocktail containing 10 ng/ml each of IL-6, IL-1 β, IL-21 and TGF-β (0.5 ng/ml) and IFNγ, IL-4, IL-12 neutralizing antibodies (10 μg/ml) was used for the Th17 polarizing conditions. For the HTS assay, 2000 differentiated Th17 cells/well in Th17 polarizing media were added to Greiner-one high base solid bottom white tissue culture treated 1536 well plates (catalog # 789173-F) using a small cassette and a Multidrop Combi dispenser (Thermo Fisher Scientific Inc.,Waltham, MA). Compounds were added using a Kalypsys pintool (Columns 5–48) and magnetic beads coupled to anti-CD3 and anti-CD28 (CD3/CD28 microbeads) were added to mediate T cell activation. CD3/CD28 microbeads were not added to first 2 columns and those wells served as basal control. DMSO was added to columns 3 and 4 and served as 100% signal. The plates were incubated for 48 h at 37 °C, 5% CO2, 95% humidity covered with low evaporation stainless steel lids from Kalypsys. After 48 h of incubation, 5 µl of Beta-Glo reagent (Beta Glo Assay System, Promega) was added using a Bioraptor Flying Reagent Dispenser (Aurora Discovery-BD) and the plates were incubated at room temperature for 30 min. Luminescence signal was captured using a 10 s exposure with a ViewLux (Perkin Elmer) containing a luminescent filter. Beta Glo reagent consists of Beta Glo substrate and buffer that are combined to form the Beta Glo reagent (Beta Glo Assay System, Promega).

[1] = test system: IL-17 production in Th17 cells; assay: Intracellular IL-17 flow cytometric cytokine assay under Th17 polarization; assay type: cell-based, mouse; details: for IL-17+ cells, gated on live CD4+CD44high cells / inhibition at 20 µM: 20 µM; for IL-17+ cells, gated on live CD4+CD44high cells: DMSO 32% (panel b), 36.8% (panel c); for inhibition at 20 µM: Mus musculus, 96 h, day 4, C57BL/6 CD4+ T cells, read-out: down-regulation (inhibition) of IL-17 production compared to control
Protocol: It has been previously shown that IL-17 production is defective in miR-155 deficient cells. […] To test the hit compounds for IL-17 downregulation, we purified naive CD4^+ T cells from C57BL/6 mice and cultured them under Th17 polarization condition. Small molecules at multiple concentrations (20 µM, 10 µM and 5 µM) were added 18 h post-plating of CD4^+ T cells on anti-CD3/CD28 coated plates and again on day 2 of culture (schema depicted in Fig. 3a).
Spleens and lymph nodes were harvested from mice and single cell suspensions were prepared by mechanical disruption followed by lysis of red blood cells with 0.83% ammonium chloride. CD4^+ T cells were either isolated by FACS sorting (BD FACS Aria) or were positively selected using magnetic CD4 microbeads (Miltenyi Biotec). For intracellular IL-17 quantitation by flow cytometry, 0.25 million cells/ well were plated in anti-CD3/CD28 (1 µg/ml) coated 48 well plates. A cocktail containing 10 ng/ml each of IL-6, IL-1 β, IL-21 and TGF-β (0.5 ng/ml) and IFNγ, IL-4, IL-12 neutralizing antibodies (10 μg/ml) was used for the Th17 polarizing conditions. All recombinant cytokines were purchased from R&D Systems and crosslinking antibodies were purified from hybridomas (Harlan). Cells were treated with small molecules at indicated concentrations at 18 h and 48 h of cell plating. On day 4 of the culture, cells were stimulated with 20 ng/ml of phorbol 12-myristate 13-acetate (PMA) and ionomycin (1 μg/ml) for 4 h in the presence of brefeldin A. Following stimulation, cells were stained with fixable viability dye (eBioscience) and surface stained for CD44 and CD4, permeabilized using cytofix/cytoperm (BD biosciences) and subsequently, stained for intracellular IL-17. Foxp3/Transcription Factor Staining kit (eBioscience) kit was used for intranuclear staining of RORγt. Samples were acquired on BD Fortessa and analyzed using Flowjo (Tree star Inc).

[2] = fresh batch compared to older batch

Compound	effect on Mir155 reporter expression (Mir155 reporter)	EC50 (Mir155 reporter) [nM]	IL-17+ cells, gated on live CD4+CD44high cells [1] [%]	inhibition at 20 µM [1] [%]	also measured
Clc1cccc(C(c2ccc3[nH]cnc3c2)n2ccnc2)c1 (stereo not drawn) [liarozole, reference compound]	either modest down-regulators or did not affect Mir155 reporter expression				
Cc1ccc(/C=C/c2nc3ccccc3n2S(=O)(=O)c2cccc(Cl)c2)cc1 [NCGC00140605]		600	13.1	65	
CSc1ccc(/C=C/c2nc3ccccc3n2S(=O)(=O)c2ccc(Br)cc2)cc1 [NCGC00108248, (E)-1-((4-bromophenyl)sulfonyl)-2-(4-(methylthio)styryl)-1H-benzo[d] imidazole]		2200	3.8	90	activity in miR-155 HTS assay, solutions of fresh powders (Mir155 reporter; [2]): inactive or demonstrated attenuated activity; inhibition of IL-17, solutions of fresh powders [1, 2]: not potent inhibitors of IL-17
CC(=O)N1CCN(c2ccc(OCC3COC(Cn4ccnc4)(c4ccc(Cl)cc4Cl)O3)cc2)CC1 (stereo not drawn) [ketoconazole, reference compound]	either modest down-regulators or did not affect Mir155 reporter expression				
OC(Cn1cncn1)(Cn1cncn1)c1ccc(F)cc1F [fluconazole, reference compound]	either modest down-regulators or did not affect Mir155 reporter expression				
CSc1ccc(/C=C/c2nc3ccccc3[nH]2)cc1 [NCGC00507974, (E)-2-(4-(methylthio)styryl)-1H-benzo[d] imidazole]	dose dependent reduction of Mir155 reporter expression	1200			effect on IL-17 production ([1]; C57BL/6 CD4+ T cells, Th17 polarization): dose-dependent inhibition of IL-17 production
CCOc1ccc(/C=C/c2nc3ccccc3n2S(=O)(=O)c2ccc(Br)cc2)cc1 [NCGC00108244]		12600	30.4	17	
c1ccc(-c2ccc(C(c3ccccc3)n3ccnc3)cc2)cc1 (stereo not drawn) [bifonazole, reference compound]	either modest down-regulators or did not affect Mir155 reporter expression				
Cc1ccc(/C=C/c2nc3ccccc3n2S(=O)(=O)c2ccc(Br)cc2)cc1 [NCGC00140607]		3700	16.6	55	
